The target of assay [1] is human orexin-2 receptor (Homo sapiens (Human), UniProt O43614). In words: hOX2R FLIPR Ca2+ flux assay. The assay is classed as cell-based. The note with it: CHO cells expressing the receptor; agonist 70 pM Ala-6,12 human orexin-A. The procedure:
In a typical experiment the OX1 and OX2 receptor antagonistic activity of the compounds of the present invention was determined in accordance with the following experimental method. For intracellular calcium measurements, Chinese hamster ovary (CHO) cells expressing the rat orexin-1 receptor or the human orexin-2 receptor, are grown in Iscove's modified DMEM containing 2 mM L-glutamine, […], 1% hypoxanthine-thymidine supplement, 100 U/ml penicillin, 100 μg/ml streptomycin and 10% heat-inactivated fetal calf serum (FCS). The cells are seeded at 20,000 cells/well into Becton-Dickinson black 384-well clear bottom sterile plates coated with poly-D-lysine. All reagents were from GIBCO-Invitrogen Corp. The seeded plates are incubated overnight at 37° C. and 5% CO2. Ala-6,12 human orexin-A as the agonist is prepared as a 1 mM stock solution in 1% bovine serum albumin (BSA) and diluted in assay buffer (HBSS containing 20 mM HEPES, 0.1% BSA and 2.5 mM probenecid, pH7.4) for use in the assay at a final concentration of 70 pM. Test compounds are prepared as 10 mM stock solution in DMSO, then diluted in 384-well plates, first in DMSO, then assay buffer. On the day of the assay, cells are washed 3 times with 100 μl assay buffer and then incubated for 60 min (37° C., 5% CO2) in 60 μl assay buffer containing 1 μM Fluo-4AM ester, 0.02% pluronic acid, and 1% BSA. The dye loading solution is then aspirated and cells are washed 3 times with 100 μl assay buffer. 30 μl of that same buffer is left in each well. Within the Fluorescent Imaging Plate Reader (FLIPR, Molecular Devices), test compounds are added to the plate in a volume of 25 μl, incubated for 5 min and finally 25 μl of agonist is added. Fluorescence is measured for each well at 1 second intervals for 5 minutes and the height of each fluorescence peak is compared to the height of the fluorescence peak induced by 70 pM Ala-6,12 orexin-A with buffer in place of antagonist. […] Alternatively, compound potency can be assessed by a radioligand binding assay (described in Bergman et. al. Bioorg. Med. Chem. Lett. 2008, 18, 1425-1430) in which the inhibition constant (Ki) is determined in membranes prepared from CHO cells expressing either the OX1 or OX2 receptor. The intrinsic orexin receptor antagonist activity of a compound which may be used in the present invention may be determined by these assays.

Assay [2] deals with hOX1R (Homo sapiens, UniProt O43613). In words: hOX1R FLIPR Ca2+ flux assay. The assay is classed as cell-based. As to conditions: CHO cells expressing the receptor; agonist 70 pM Ala-6,12 human orexin-A.

Structures are written as SMILES.

Chain of human orexin-2 receptor (O43614 whole entry): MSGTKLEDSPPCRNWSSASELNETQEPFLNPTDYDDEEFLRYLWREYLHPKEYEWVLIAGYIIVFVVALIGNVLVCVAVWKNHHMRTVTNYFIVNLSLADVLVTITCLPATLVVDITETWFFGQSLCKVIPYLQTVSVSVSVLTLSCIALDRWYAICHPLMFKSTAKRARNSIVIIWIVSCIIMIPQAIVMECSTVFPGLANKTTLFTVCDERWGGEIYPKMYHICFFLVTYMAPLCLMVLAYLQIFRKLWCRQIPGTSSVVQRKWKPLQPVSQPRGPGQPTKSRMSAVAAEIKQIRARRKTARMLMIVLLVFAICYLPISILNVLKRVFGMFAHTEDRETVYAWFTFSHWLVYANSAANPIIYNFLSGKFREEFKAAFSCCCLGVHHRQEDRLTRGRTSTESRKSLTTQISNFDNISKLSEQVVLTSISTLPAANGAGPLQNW

Regarding `CC(C)(O)c1ccnc(N2CC[C@@H]3CCN(C(=O)c4ccccc4-n4nccn4)C[C@@H]32)c1` [Example C5, 2-{2-[(3aR, 7aR)-6-{[2-(2H-1,2,3-triazol-2-yl)phenyl]carbonyl}octahydro-1H-pyrrolo[2,3-c]pyridin-1-yl]pyridin-4-yl}propan-2-ol], the half-inhibitory concentration (IC50) in assay [1] came to 0.125 µM; in assay [2], 10 µM.
Taken in the same sequence, the figures for `CC(C)(O)c1cnc(N2CC[C@@H]3CCN(C(=O)c4ccccc4-n4nccn4)C[C@@H]32)nc1` [Example C6, 2-{2-[(3aR, 7aR)-6-{[2-(2H-1,2,3-triazol-2-yl)phenyl]carbonyl}octahydro-1H-pyrrolo[2,3-c]pyridin-1-yl]pyrimidin-5-yl}propan-2-ol] were 1.83 µM and 10 µM.
On to `N#Cc1ccnc(N2CC[C@@H]3CCN(C(=O)c4cccnc4OCC(F)F)C[C@@H]32)c1` [Example D1, 2-((3aR,7aR)-6-(2-(2,2-difluoroethoxy)nicotinoyl)octahydro-1H-pyrrolo[2,3-c]pyridin-1-yl)isonicotinonitrile], for which the IC50 in assay [1] is 0.147 µM; in assay [2], 10 µM.
In the case of `CCOc1ccccc1C(=O)N1CC[C@H]2CCN(c3cc(C#N)ccn3)[C@H]2C1` [Example E1, 2-((3aR,7aR)-6-(2-ethoxybenzol)octahydro-1H-pyrrolo[2,3-c]pyridin-1-yl)isonicotinonitrile], the IC50 is 0.11 µM in assay [1] and 10 µM in assay [2].
Taken in the same sequence, the figures for `CCCc1ccccc1C(=O)N1CC[C@H]2CCN(c3cc(C#N)ccn3)[C@H]2C1` [Example E2, 2-((3aR, 7aR)-6-(2-propylbenzoyl)octahydro-1H-pyrrolo[2,3-c]pyridin-1-yl)isonicotinonitrile] were 0.0594 µM and 10 µM.
In the case of `N#Cc1ccnc(N2CC[C@@H]3CCN(C(=O)c4ccccc4CC(F)(F)F)C[C@@H]32)c1` [Example E3, 2-((3aR, 7aR)-6-(2-(2,2,2-trifluoroethyl)benzoyl)octahydro-1H-pyrrolo[2,3-c]pyridin-1-yl)isonicotinonitrile], the IC50 was determined as 0.0481 µM in assay [1] and 10 µM in assay [2].
Take `N#Cc1ccnc(N2CC[C@@H]3CCN(C(=O)c4ccc(F)cc4-n4nccn4)C[C@@H]32)c1` [Example E4, 2-((3aR, 7aR)-6-(4-fluoro-2(2H-1,2,3-triazol-2-yl)benzoyl)octahydro-1H-pyrrolo[2,3-c]pyridin-1-yl)isonicotinonitrile]: the values for the IC50 in assay [1] and in assay [2] were 0.0627 µM and at least 10 µM, respectively.
Taken in the same sequence, the figures for `N#Cc1ccnc(N2CC[C@@H]3CCN(C(=O)c4cccnc4-c4ccccc4)C[C@@H]32)c1` [Example E5, 2-((3aR, 7aR)-6-(2-phenylnicotinoyl)octahydro-1H-pyrrolo[2,3-c]pyridin-1-yl)isonicotinonitrile] were 0.0939 µM and 10 µM.
`CCOc1ncccc1C(=O)N1CC[C@H]2CCN(c3cc(C#N)ccn3)[C@H]2C1` [Example E6, 2-{(3aR, 7aR)-6-[(2-ethoxypyridin-3-yl)carbonyl]octahydro-1H-pyrrolo[2,3-c]pyridin-1-yl}pyridine-4-carbonitrile]: the 50% inhibitory concentration (IC50) in assay [1] was found to be 1.15 µM; in assay [2], 10 µM.
Turning to `N#Cc1ccnc(N2CC[C@@H]3CCN(C(=O)c4cccnc4OCC(F)(F)F)C[C@@H]32)c1` [Example E7, 2-[(3aR, 7aR)-6-{[2-(2,2,2-trifluoroethoxy)pyridin-3-yl]carbonyl}octahydro-1H-pyrrolo[2,3-c]pyridin-1-yl]pyridine-4-carbonitrile], the IC50 in assay [1] is 0.122 µM; in assay [2], 10 µM.
With `N#Cc1ccnc(N2CC[C@@H]3CCN(C(=O)c4ccccc4CC(F)F)C[C@@H]32)c1` [Example E8, 2-[(3aR, 7aR)-6-{[2-(2,2-difluoroethyl)phenyl]carbonyl}octahydro-1H-pyrrolo[2,3-c]pyridin-1-yl]pyridine-4-carbonitrile], the IC50 in assay [1] is 0.512 µM; in assay [2] it was 10 µM.

These data come from patent US9938276B2, “6,5-bicyclic octahydropyrrolopyridine orexin receptor antagonists” (Merck Sharp & Dohme Corp., priority 2014, dated 2018).
